Results as given in the supplement of paper PMC3493320.

What follows are molecules tested on NCI-H295R (assay: IC50 (antiproliferative, ATP content)). Conditions: 48 h.
Outline: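 Cell viability of adrenocortical carcinoma cells was assessed as ATP by CellTiter-Glo luminescence. Cells at 1500 per well in 1536-well plates, in serum-free DMEM with ITS, received compounds by pin transfer at 8 final concentrations (0.6 nM–46 µM) after overnight culture and were then held 48 h at 37 °C, 5% CO2. IC50 was calculated by logistic fitting against vehicle and positive-control wells, compounds with no concentration response being recorded as above the top dose.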

SMILES	IC50 [µM]
CCN(CC)C(=O)N[C@@H]1C=C2c3cccc4[nH]cc(c34)C[C@@H]2N(C)C1	> 46
CCOc1cc(-c2nccc3cc(OC)c(OC)cc23)cc(OCC)c1OCC	> 46
FC(F)OC(F)(F)C(F)Cl (centres undefined)	> 46
CC(COc1ccccc1)NC(C)C(O)c1ccc(O)cc1.Cl (centres undefined)	> 46
Oc1ccc(Cl)cc1Cc1ccccc1	> 46
CC(C)NCC(O)c1cc(O)cc(O)c1.CC(C)NCC(O)c1cc(O)cc(O)c1.O=S(=O)(O)O (centres undefined)	> 46
CCN[C@@H]1C[C@H](N)[C@@H](OC2OC(CN)=CCC2N)[C@H](O)[C@H]1O[C@H]1OC[C@](C)(O)[C@H](NC)[C@H]1O.CCN[C@@H]1C[C@H](N)[C@@H](OC2OC(CN)=CCC2N)[C@H](O)[C@H]1O[C@H]1OC[C@](C)(O)[C@H](NC)[C@H]1O.O=S(=O)(O)O.O=S(=O)(O)O.O=S(=O)(O)O.O=S(=O)(O)O.O=S(=O)(O)O (some centres undefined)	> 46
[O]=[Bi][O][Bi]=[O]	> 46
Cc1cccc(N(C)C(=S)Oc2ccc3ccccc3c2)c1	> 46
CCCCC1(COC(=O)CCC(=O)O)C(=O)N(c2ccccc2)N(c2ccccc2)C1=O	> 46
CCCCCCCCCCCCCCCC(=O)OCC(COC(=O)CCCCCCCCCCCCCCC)OC(=O)CCCCCCCCCCCCCCC	> 46
CC12CCC(CC1)C(C)(C)O2	> 46
Cc1ncc(CO)c(CN)c1O.Cl.Cl	> 46
COc1ccccc1N1CCNCC1.Cl	> 46
C[C@]12CC[C@H]3[C@@H](CCC4=C(Cl)C(=O)CC[C@@]43C)[C@@H]1CC[C@@H]2O	> 46
O=C(O)c1ccc2[nH]cc(CCCCN3CC=C(c4ccccc4)CC3)c2c1	> 46
O=C3[C@@H]4[C@]([C@](CC6)(C)[C@H]([C@@]5=COC=C5)O3)(O4)[C@@]2(C)[C@@]6([H])[C@@]1(CO7)[C@H](CC7=O)OC(C)(C)[C@@]([H])1CC2=O	> 46
CCN(CC)CCOC(=O)C(O)(c1ccccc1)c1ccccc1	> 46
O=S(=O)(O)O.Oc1ccc(C(O)CNCCCCCCNCC(O)c2ccc(O)c(O)c2)cc1O (centres undefined)	> 46
CCCCC[C@H](O)/C=C/[C@@H]1[C@@H](C/C=C\CCCC(=O)O)[C@@H](O)C[C@H]1O	> 46
Cl.O=C(OCCN1CCCCC1)C(O)(c1ccccc1)c1ccccc1	> 46
CN1C(=O)[C@@H](NC(=O)c2cc3ccccc3[nH]2)N=C(c2ccccc2)c2ccccc21	> 46
CCCCC[C@H](O)/C=C/[C@H]1[C@H](O)CC(=O)[C@@H]1CCCCCCC(=O)O	> 46
O=C(O)c1nn(Cc2ccc(Cl)cc2Cl)c2ccccc12	> 46
O=c1ccn(C2OC(COP(=O)(O)OC3C(CO)OC(n4ccc(=O)[nH]c4=O)C3O)C(O)C2O)c(=O)[nH]1 (centres undefined)	> 46
CNC(=O)OCC[N+](C)(C)C.[Cl-]	> 46
CCCCNC(=N)NC(=N)N	> 46
COc1ccc(CN(CCN(C)C)c2ccccn2)cc1	> 46

SMILES	IC50 [µM]
CC(=O)[O][Al]([OH])[O]C(C)=O	> 46
O.O.O.O.O.O.O.O=S(=O)([O-])[O-].[Co+2]	> 46
CCC1(c2ccccc2)CCC(=O)NC1=O (centres undefined)	> 46
CNCCCCOc1ccccc1Cc1ccccc1	> 46
Br.COc1ccc2c(c1)[C@]13CCCC[C@@H]1[C@H](C2)N(C)CC3.O	> 46
NCCNCCNCCNCCN	> 46
O=Cc1ccco1	> 46
CO[C@]12C[C@@H](COC(=O)c3cncc(Br)c3)CN(C)[C@@H]1Cc1cn(C)c3cccc2c13	> 46
OB(O)O	> 46
COc1ccc(-c2cc(C(F)F)nn2-c2ccc(S(N)(=O)=O)cc2)cc1F	> 46
CN(Cc1ccccc1)Cc1ccccc1	> 46
C#C[C@]1(O)CC[C@H]2[C@@H]3CCC4=CC(=O)CCC4=C3C=C[C@@]21CC	> 46
Cc1cn[nH]c1	> 46
C[C@H](N)[C@H](O)c1ccc(O)c(O)c1	> 46
C[N+](C)(C)CC(O)CC(=O)[O-].Cl (centres undefined)	> 46
C=CCN=C=S	> 46
c1ccc(C2(N3CCCC3)CCCCC2)cc1	> 46
N[C@@H](CSCCCO)C(=O)O	> 46
C1CCC(NC2CCCCC2)CC1	> 46
Cc1ccc(Cl)c(O)c1	> 46
Oc1cc(Cl)c(Cl)cc1Cl	> 46
[O-][n+]1cccc(CO)c1	> 46
O=C1CCO1	> 46
C#CCN[C@@H]1CCc2ccccc21.CS(=O)(=O)O	> 46
[N-]=[N+]=CC(=O)OC[C@H](N)C(=O)O	> 46
CC1(C)O[C@@H]2C[C@H]3[C@@H]4C[C@H](F)C5=CC(=O)CC[C@]5(C)[C@H]4[C@@H](O)C[C@]3(C)[C@]2(C(=O)CO)O1	> 46
O=S(=O)([O-])CCCS(=O)(=O)[O-].[Na+].[Na+]	> 46

More lines, now with the values ahead:

IC50 [µM]	SMILES
> 46	Cc1c(F)c(N2CCNC(C)C2)cc2c1c(=O)c(C(=O)O)cn2C1CC1.Cl (centres undefined)
> 46	OC(C#CCN1CCCC1)(c1ccccc1)c1ccccc1
> 46	OC(CCN1CCCCC1)(c1ccccc1)c1ccccc1
> 46	CC(=O)Nc1cccc(O)c1
> 46	Cl.O=C(COc1ccc(Cl)cc1)N1CCN(Cc2ccc3c(c2)OCO3)CC1
> 46	Cc1c(Cl)cccc1Nc1ncccc1C(=O)O
> 46	Cc1c(C)n(Cc2ccccc2)c2ccc(C(=O)OCCN(C)C)cc12
> 46	CC(C)(C)NCC(O)COc1ccc(NC(=O)NC2CCCCC2)cc1 (centres undefined)
> 46	CC(C)NC[C@@H](O)COc1cccc2ccccc12
> 46	CN1CCC(Nc2ncc3ncnc(Nc4ccc(F)c(Cl)c4)c3n2)CC1.Cl.Cl
> 46	[Na+].C/C(C)=C\Cc1cc(ccc1O)C(=O)N\C3=C(/[O-])c4ccc(O[C@@H]2OC(C)(C)[C@H](OC)[C@@H](OC(N)=O)[C@H]2O)c(C)c4OC3=O
> 46	CC(C)=CCC1C(=O)N(c2ccccc2)N(c2ccccc2)C1=O
> 46	O=c1c(-c2ccc(O)cc2)coc2cc(O)cc(O)c12
> 46	CC(C)CN(C[C@@H](O)[C@H](Cc1ccccc1)NC(=O)O[C@@H]1CCOC1)S(=O)(=O)c1ccc(N)cc1
> 46	NC(=O)NC(=O)Cc1ccccc1
> 46	Cc1ccc(/C(=C\CN2CCCC2)c2ccccn2)cc1
> 46	CC(=O)c1ccc2c(c1)N(CCCN1CCC(CCO)CC1)c1ccccc1S2
> 46	COc1ccc(NS(=O)(=O)c2ccc(N)cc2)nn1
> 46	CN1C(=O)CN2CCc3ccccc3C2c2cc(Cl)ccc21 (centres undefined)
> 46	CCCCNC(=O)NS(=O)(=O)c1ccc(N)cc1
> 46	Cc1c(C(=O)NCCO)[n+]([O-])c2ccccc2[n+]1[O-]
> 46	COc1ccc(-c2cc(=S)ss2)cc1
> 46	Cc1ccc(S(=O)(=O)NC(=O)NC2CCCCC2)cc1
> 46	Cc1cc(-n2nc3ccc(Cl)cc3n2)c(O)c(C(C)(C)C)c1
> 46	COc1ccc2c3c1O[C@H]1C[C@@H](O)C=C[C@@]31CCN(C)C2
> 46	O=C(O)c1ccc(S(=O)(=O)N(Cl)Cl)cc1
> 46	CCCNC(C)(C)COC(=O)c1ccccc1.Cl

IC50 [µM]	SMILES
> 46	CN1CCN2c3ccccc3Cc3ccccc3C2C1 (centres undefined)
> 46	[C@]13([C@@](C(=O)CO)(CC[C@H]1[C@@H]2CCC=4[C@@]([C@H]2[C@H](C3)O)(\C=C/C(C=4)=O)C)O)C
> 46	CN(C)CCc1c[nH]c2ccc(CS(=O)(=O)N3CCCC3)cc12
> 46	Cc1cccn2c(=O)c(-c3nnn[n-]3)cnc12.[K+]
> 46	COc1cc2c(cc1OC)C(=O)C(CC1CCN(Cc3ccccc3)CC1)C2.Cl (centres undefined)
> 46	Cl.Cn1c(NCCN(CCO)CCCc2ccc([N+](=O)[O-])cc2)cc(=O)n(C)c1=O
> 46	CC(NNC(=O)c1ccccc1)c1ccccc1 (centres undefined)
> 46	CC(C)NCC1CCc2cc(CO)c([N+](=O)[O-])cc2N1 (centres undefined)
> 46	O=C(OCc1ccccc1)c1cccnc1
> 46	OC(CN1CCC(Cc2ccc(F)cc2)CC1)c1ccc(Cl)cc1 (centres undefined)
> 46	O=c1[nH]c(=O)n(C2CCCO2)cc1F (centres undefined)
> 46	Nc1cc(N2CCCCC2)nc(N)[n+]1[O-]
> 46	CC(=O)Nc1ccc(C=NNC(N)=S)cc1
> 46	CN1CCN2c3ncccc3Cc3ccccc3C2C1 (centres undefined)
> 46	CC(O)C(=O)O.CCOc1ccc2nc3cc(N)ccc3c(N)c2c1.O
> 46	CCOC(=O)c1ccc(O)cc1
> 46	O=C1N2[C@@](SC(C)(C)[C@@H]2[C@@](O)=O)([H])[C@@]([H])1NC([C@H](NC([C@H](N)CC(NC)=O)=O)[C@@]3=CC=C(O)C=C3)=O
> 46	C[C@H](Cc1ccc(O)c(O)c1)[C@@H](C)Cc1ccc(O)c(O)c1
> 46	O=C(Nc1ccc(Cl)c(Cl)c1)C1CC1
> 46	O=[C@@]([C@@H]2CC[C@@H](CN)CC2)OC1=CC=C(CCC(O)=O)C=C1.Cl
> 46	Cl.OC(CCN1CCCC1)(c1ccccc1)C1CCCCC1 (centres undefined)
> 46	O=C([C@H](CC1=CN=CN1)N[C@]([C@H](CC2)NC2=O)=O)N(CCC3)[C@@H]3[C@](N)=O
> 46	Nc1cccc2c1CN(C1CCC(=O)NC1=O)C2=O (centres undefined)
> 46	Nc1ccncc1N
> 46	CC(C)(C)NCC(O)COc1cccc2c1C[C@H](O)[C@H](O)C2 (some centres undefined)
> 46	CCOc1ccc2c(c1)C(C)=CC(C)(C)N2
> 46	CCCN(CCC)S(=O)(=O)c1ccc(C(=O)O)cc1
